Data as given in ChEMBL document CHEMBL1141176, “Quantitative structure-activity relationship (5D-QSAR) study of combretastatin-like analogues as inhibitors of tubulin assembly” (J Med Chem, 2005).

Target: Tubulin beta-1 chain (Homo sapiens, UniProt Q9H4B7)
Experiment: Concentration required for 50% inhibition of tubulin polymerization

Tubulin beta-1 chain, sequence (Q9H4B7 whole entry): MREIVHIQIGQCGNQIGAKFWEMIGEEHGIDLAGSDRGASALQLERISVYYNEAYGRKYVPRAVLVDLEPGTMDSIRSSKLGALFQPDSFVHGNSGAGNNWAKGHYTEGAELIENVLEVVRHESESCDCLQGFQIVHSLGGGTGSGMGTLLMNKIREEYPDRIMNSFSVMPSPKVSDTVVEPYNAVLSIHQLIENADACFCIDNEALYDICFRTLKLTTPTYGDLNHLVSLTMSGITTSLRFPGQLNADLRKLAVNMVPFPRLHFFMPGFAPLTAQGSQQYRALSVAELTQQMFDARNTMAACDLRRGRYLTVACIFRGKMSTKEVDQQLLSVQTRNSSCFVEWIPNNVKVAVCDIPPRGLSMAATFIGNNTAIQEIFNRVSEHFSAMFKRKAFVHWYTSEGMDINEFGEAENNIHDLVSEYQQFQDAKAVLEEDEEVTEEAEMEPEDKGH

| SMILES | IC50 |
| --- | --- |
| COc1ccc(COc2cc(OC)c(OC)c(OC)c2)cc1OCC(O)CO (stereo not given) | > 100000 nM |
| CCc1ccc(/C=C\c2cc(OC)c(OC)c(OC)c2)cc1 | 3400 nM |
| COc1ccc(/C=C\c2cc(F)c(F)c(F)c2)cc1F | 5500 nM |
| COc1ccc(Nc2cc(OC)c(OC)c(OC)c2)cc1O | > 100000 nM |
| CCOc1cc(/C=C\c2ccc(OC)c(O)c2)cc(OCC)c1OCC | 500 nM |
| COc1cc(/C=C\c2ccc(C)c(C)c2)cc(OC)c1OC | 2000 nM |
| COc1ccc(COc2cc(OC)c(OC)c(OC)c2)cc1O | 7200 nM |
| COc1ccc(/C=C(\C)C(=O)c2cc(OC)c(OC)c(OC)c2)cc1O | 460 nM |
| COc1ccc(/C=C/C(=O)c2cc(OC)c(OC)c(OC)c2)cc1O | 620 nM |
| COc1ccc(/C=C\c2ccccc2)cc1O | 2500 nM |
| COc1ccc(/C=C\c2cc(C)c(C)c(C)c2)cc1F | 700 nM |
| COc1ccc(/C=C(/C)c2cc(OC)c(OC)c(OC)c2)cc1O | 130 nM |
| COc1cc(C(=O)/C=C/c2cc(F)c(OC)c(F)c2)cc(OC)c1OC | 12000 nM |
| COc1ccc(C(=O)/C=C/c2cc(F)c(OC)c(F)c2)c(OC)c1OC | 31000 nM |
| COc1cc(C(=O)/C(C)=C/c2cc(F)c(OC)c(F)c2)cc(OC)c1OC | 2400 nM |
| CC/C(=C/c1ccc(OC)c(O)c1)c1cc(OC)c(OC)c(OC)c1 | 130 nM |
| COc1ccc(/C=C(/C)c2cc(OC)c(OC)c(OC)c2)cc1 | 1300 nM |
| COc1ccc(OC)c(C(=O)/C(C)=C/c2ccc(N(C)C)cc2)c1 | 10000 nM |
| COc1ccc(CC(C)C(=O)c2cc(OC)c(OC)c(OC)c2)cc1O (stereo not given) | 4000 nM |
| COc1ccc(/C(C)=C/c2cc(OC)c(OC)c(OC)c2)cc1O | 9000 nM |
| CO/C(=C\c1ccc(OC)c(O)c1)C(=O)c1cc(OC)c(OC)c(OC)c1 | 510 nM |
| COc1ccc(/C=C\c2cc(C)c(C)c(C)c2)cc1O | 120 nM |
| COc1ccc(Oc2cc(OC)c(OC)c(OC)c2)cc1O | 11000 nM |

| SMILES | IC50 |
| --- | --- |
| COc1ccc(/C=C\c2ccc(C)c(C)c2)cc1F | 6600 nM |
| CO/C(=C\c1cc(F)c(OC)c(F)c1)C(=O)c1cc(OC)c(OC)c(OC)c1 | 1700 nM |
| COc1ccc(/C=C\c2cc(O)c(OC)c(OC)c2)cc1F | 1250 nM |
| COc1cc(C(=O)/C=C/c2ccc(O)c(O)c2)cc(OC)c1OC | > 100000 nM |
| COc1ccc(/C=C/C(=O)c2cc(OC)c(OC)c(OC)c2)cc1N | 2000 nM |
| COc1ccc(OCc2cc(OC)c(OC)c(OC)c2)cc1O | 21000 nM |
| COc1ccc(/C=C\c2cc(OC)c(OC)c(OC)c2)cc1 | 200 nM |
| COc1ccc(C(=O)/C=C/c2cc(O)c(O)c(O)c2)c(OC)c1OC | > 100000 nM |
| COc1ccc(OCc2cc(OC)c(OC)c(OC)c2)cc1C=O | 560 nM |
| COc1ccc(/C=C\c2cc(F)c(F)c(F)c2)cc1O | 4500 nM |
| COc1ccc(/C=C(\C)C(=O)c2cc(OC)c(OC)c(OC)c2)cc1F | 650 nM |
| COc1ccc(/C=C(\C)C(=O)c2cc(OC)c(OC)c(OC)c2)cc1[N+](=O)[O-] | > 10000 nM |
| CCOc1cc(/C=C\c2ccc(OC)c(F)c2)cc(OCC)c1OCC | 1200 nM |
| COc1ccc(COc2cc(OC)c(OC)c(OC)c2)cc1OCC=O | 41000 nM |
| COc1ccc(/C=C(\C)C(O)c2cc(OC)c(OC)c(OC)c2)cc1O (stereo not given) | > 10000 nM |
| CO/C(=C\c1ccc(OC)c(F)c1)C(=O)c1cc(OC)c(OC)c(OC)c1 | 470 nM |
| COc1ccc(OCc2cc(OC)c(OC)c(OC)c2)cc1CO | > 100000 nM |
| COc1ccc(/C=C/C(=O)c2ccc(OC)c(OC)c2OC)cc1O | 450 nM |
| COc1ccc(/C=C/C(=O)c2ccc(OC)c(OC)c2OC)cc1F | 7900 nM |
| COc1ccc(/C=C\c2ccc(C)c(C)c2)cc1O | 3100 nM |
| COc1ccc(/C=C\c2cc(C)c(C)c(C)c2)cc1 | 650 nM |
| COc1ccc(/C=C/C(=O)c2cc(OC)c(OC)c(OC)c2)cc1F | 1200 nM |
